Key:
human TRPA1 ion channel = target: T1, human TRPA1 ion channel (Homo sapiens, UniProt O75762); assay: Assay A: TRPA1 assay (FLIPR calcium, AITC agonism); type: cell-based; details: compounds of the invention; HEK293 over-expressing human TRPA1, AITC final 10 μM, FLIPRtetra; read-out: hTRPA1 IC50
T1 construct: host or cells: HEK293
Protocol: A human HEK293 cell line over-expressing the human TRPA1 ion channel (Perkin Elmer, Product No. AX-004-PCL) is used as a test system for compound efficacy and potency. Compound activity is determined by measuring the effect of compounds on intracellular calcium concentration induced by AITC (Allylisothiocyanat) agonism in a FLIPRtetra system (Molecular Devices).
The cells are obtained as frozen cells in cryo-vials and stored until use at −150° C. Cells are grown in culture medium (MEM/EBSS medium with 10% FCS and 0.4 mg/ML Geneticin). […] For sub-culturing cells are detached from flasks by Versene. At the day before the assay, cells are detached, washed twice with medium (MEM/EBSS medium with 10% FCS) and 20000 cells in 20 μl/well are seeded to Poly D-Lysin biocoated 384-well plates (black, clear bottom, Cat. 356697) from Corning. Plates are incubated for 24 hours at 37° C./5% CO2 before use in the assay.
The test compounds are dissolved in 100% DMSO at a concentration of 10 mM and in a first step diluted in DMSO to a concentration of 5 mM, followed by serial dilution steps in 100% DMSO. Dilution factor and number of dilution steps may vary according to needs. Typically 8 different concentrations by 1:5 dilutions are prepared, further intermediate dilutions (1:20) of the substances are carried out with HBSS/HEPES buffer (1×HEPES, Cat. 14065 from Gibco, 20 mM HEPES, Cat. 83264 from SIGMA, 0.1% BSA Cat. 11926 from Invitrogen, pH 7.4
At the assay day cells are washed 3× with assay puffer, 20 μL buffer remaining in the wells after washing. 10 μL Ca6 kit (Cat. R8191 MolecularDevices) loading buffer in HBSS/HEPES is added to the cells and the plates are incubated with lid for 120 minutes at 37°/5% CO2. […] Finally 10 μL of the agonist AITC 50 μM dissolved in HBSS/HEPES buffer/0.05% DMSO (final concentration 10 μM) is added to the wells followed by an additional read on the FLIPRtetra device for 10 minutes. The area under the signal curve (AUC) after AITC addition is used for IC50/% inhibition calculations
Data Evaluation and Calculation:
Each assay microtiter plate contains wells with vehicle (1% DMSO) controls instead of compound as controls for AITC induced luminescence (100% CTL; high controls) and wells with vehicle controls without AITC as controls for non-specific changes in luminescence (0% CTL; low controls).
The analysis of the data is performed by the calculation of the area under signal curve of the individual wells. Based on this values the % value for the measurement of each substance concentration is calculated (AUC(sample)−AUC(low))*100/(AUC(high)−AUC(low)) using MegaLab software (in house development). The IC50 values are calculated from the % control values using MegaLab software. Calculation: [y=(a−d)/(1+(x/c)^b)+d], a=low value, d=high value; x=conc M; c=IC50 M; b=hill; y=% ctrl

[1] = Assay B: Microsomal clearance; type: in vitro ADME, human; details: compounds of the invention; pooled liver microsomes 1 mg/ml, 1 μM compound, 37° C., NADPH
Protocol: Assay B: Microsomal Clearance:
The metabolic degradation of the test compound is assayed at 37° C. with pooled liver microsomes. The final incubation volume of 100 μl per time point contains TRIS buffer pH 7.6 at RT (0.1 M), magnesium chloride (5 mM), microsomal protein (1 mg/ml) and the test compound at a final concentration of 1 μM.
Following a short preincubation period at 37° C., the reactions are initiated by addition of beta-nicotinamide adenine dinucleotide phosphate, reduced form (NADPH, 1 mM) and terminated by transferring an aliquot into solvent after different time points (0, 5, 15, 30, 60 min). Additionally, the NADPH-independent degradation is monitored in incubations without NADPH, terminated at the last time point. The [%] remaining test compound after NADPH independent incubation is reflected by the parameter c(control) (metabolic stability). The quenched incubations are pelleted by centrifugation (10000 g, 5 min).
An aliquot of the supernatant is assayed by LC-MS/MS for the amount of parent compound. The half-life (t1/2 INVITRO) is determined by the slope of the semilogarithmic plot of the concentration-time profile.
The intrinsic clearance (CL_[…]) is calculated by considering the amount of protein in the incubation: CL_[…] [μl/min/mg protein]=(Ln 2/(half-life [min]*protein content [mg/ml]))*1000 CL_[…]_INVIVO [ml/min/kg]=(CL_[…] [μL/min/mg protein]×MPPGL [mg protein/g liver]×liver factor [g/kg bodyweight])/1000 Qh [%]=CL [ml/min/kg]/hepatic blood flow [ml/min/kg])
(§1) Hepatocellularity, human: 120×10e6 cells/g liver
(§2) Liver factor, human 25.7 g/kg bodyweight
(§3) Blood flow, human 21 ml/(min×kg)

[2] = Assay C: Hepatocyte clearance; type: in vitro ADME, human; details: compounds of the invention; hepatocyte suspension, 5% species serum, 1 μM compound, up to 6 h
Protocol: Assay C: Hepatocyte Clearance
The metabolic degradation of the test compound is assayed in a hepatocyte suspension. Hepatocytes (cryopreserved) are incubated in Dulbecco's modified eagle medium (supplemented with 3.5 μg glucagon/500 mL, 2.5 mg insulin/500 mL and 3.75 mg/500 mL hydrocortison) containing 5% species serum.
The cells are incubated for six hours (incubator, orbital shaker) and samples (25 μl) are taken at 0, 0.5, 1, 2, 4 and 6 hours. Samples are transferred into acetonitrile and pelleted by centrifugation (5 min). The supernatant is transferred to a new 96-deepwell plate, evaporated under nitrogen and resuspended.
Decline of parent compound is analyzed by HPLC-MS/MS
CLint is calculated as follows CL_[…]=Dose/AUC=(CO/CD)/(AUD+clast/k)×1000/60. C0: initial concentration in the incubation [μM], CD: cell density of vital cells [10e6cells/mL], AUD: area under the data [μM×h], clast: concentration of last data point [μM], k: slope of the regression line for parent decline [h−1].
The calculated in vitro hepatic intrinsic clearance can be scaled up to the intrinsic in vivo hepatic Clearance and used to predict hepatic in vivo blood clearance (CL) by the use of a liver model (well stirred model). CL_[…]_INVIVO [ml/min/kg]=(CL_[…] [μL/min/10e6cells]×hepatocellularity [10e6 cells/g liver]×liver factor [g/kg bodyweight])/1000 CL [ml/min/kg]=CL_[…]_INVIVO [ml/min/kg]×hepatic blood flow [ml/min/kg]/(CL_[…]_INVIVO [ml/min/kg]+hepatic blood flow [ml/min/kg]) Qh [%]=CL [ml/min/kg]/hepatic blood flow [ml/min/kg])
as §1, §2, §3

T1 sequence (O75762 whole entry): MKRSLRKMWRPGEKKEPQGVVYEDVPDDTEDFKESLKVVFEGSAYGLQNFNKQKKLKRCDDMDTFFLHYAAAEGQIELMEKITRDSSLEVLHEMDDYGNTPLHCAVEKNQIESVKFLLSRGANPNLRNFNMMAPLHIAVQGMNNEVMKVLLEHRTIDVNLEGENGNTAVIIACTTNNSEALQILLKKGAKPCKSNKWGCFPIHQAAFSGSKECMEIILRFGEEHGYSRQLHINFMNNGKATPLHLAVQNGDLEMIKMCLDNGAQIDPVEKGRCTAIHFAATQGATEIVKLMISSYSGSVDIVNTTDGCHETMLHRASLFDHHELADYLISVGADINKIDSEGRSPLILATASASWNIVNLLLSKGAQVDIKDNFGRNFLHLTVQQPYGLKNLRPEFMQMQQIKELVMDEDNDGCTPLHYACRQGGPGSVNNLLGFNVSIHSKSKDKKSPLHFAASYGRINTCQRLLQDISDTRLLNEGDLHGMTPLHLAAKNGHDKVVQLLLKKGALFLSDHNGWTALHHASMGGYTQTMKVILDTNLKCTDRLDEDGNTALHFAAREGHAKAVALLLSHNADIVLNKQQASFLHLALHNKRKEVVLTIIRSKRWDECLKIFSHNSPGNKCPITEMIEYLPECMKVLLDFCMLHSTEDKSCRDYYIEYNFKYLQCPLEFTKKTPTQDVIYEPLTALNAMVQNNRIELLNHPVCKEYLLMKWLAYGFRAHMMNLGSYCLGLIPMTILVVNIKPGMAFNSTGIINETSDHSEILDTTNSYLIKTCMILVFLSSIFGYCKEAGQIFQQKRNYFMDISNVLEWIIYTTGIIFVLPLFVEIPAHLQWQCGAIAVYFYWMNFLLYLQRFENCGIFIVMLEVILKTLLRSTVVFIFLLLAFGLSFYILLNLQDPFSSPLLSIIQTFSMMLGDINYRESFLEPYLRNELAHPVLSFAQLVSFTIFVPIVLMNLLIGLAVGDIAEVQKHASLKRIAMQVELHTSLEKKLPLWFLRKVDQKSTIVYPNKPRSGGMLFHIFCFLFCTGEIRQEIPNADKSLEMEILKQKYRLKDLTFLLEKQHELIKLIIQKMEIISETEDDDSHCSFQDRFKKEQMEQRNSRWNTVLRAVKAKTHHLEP

Row | SMILES | IC50 (human TRPA1 ion channel) [nM] | human LM [1] [% Qh] | human Hepatocytes [2] [% Qh]
1 | CN1C(=O)COc2ncn(Cc3nc(C[C@H](O)c4ccc(Cl)cc4)no3)c(=O)c21 [Example 1, 3-({3-[(2S)-2-(4-chlorophenyl)-2-hydroxyethyl]-1,2,4-oxadiazol-5-yl}methyl)-5-methyl-3H,4H,5H,6H,7H-pyrimido[4,5-b][1,4]oxazine-4,6-dione] | 57 | <23 | 9
2 | CN1C(=O)COc2ncn(Cc3nc(C[C@H](O)c4cc5ccc(F)cc5s4)no3)c(=O)c21 [Example 2] | 12 | <23 | 34
3 | CN1C(=O)COc2ncn(Cc3nc(C[C@H](O)c4cc5ccccc5s4)no3)c(=O)c21 [Example 3] | 27 | <23 | 31
4 | CN1C(=O)COc2ncn(Cc3nc(C[C@H](O)c4cc5cc(F)ccc5o4)no3)c(=O)c21 [Example 4] | 39 | <23 | 22
5 | CN1C(=O)COc2ncn(Cc3nc(C[C@H](O)c4ccc(I)cc4)no3)c(=O)c21 [Example 5] | 39 | 29 | 22
6 | CN1C(=O)COc2ncn(Cc3nc(C[C@H](O)c4cc5cc(Cl)ccc5o4)no3)c(=O)c21 [Example 6] | 51 | 56 | 37
7 | Cc1ccc([C@@H](O)Cc2noc(Cn3cnc4c(c3=O)N(C)C(=O)CO4)n2)cc1 [Example 7] | 120 | <23 | 9

Source: patent US11884681B2, “3H,4H,5H,6H,7H-pyrimido[4,5-b][1,4]oxazine-4,6-dione derivatives as TRPA1 inhibitors” (Boehringer Ingelheim International GmbH, priority 2021, dated 2024)
